Experimental data as given in the Kinase Knowledgebase extract (Sharma et al. 2016).

Target: EGFR (UniProt P00533)
Sequence (P00533 whole entry, looked up): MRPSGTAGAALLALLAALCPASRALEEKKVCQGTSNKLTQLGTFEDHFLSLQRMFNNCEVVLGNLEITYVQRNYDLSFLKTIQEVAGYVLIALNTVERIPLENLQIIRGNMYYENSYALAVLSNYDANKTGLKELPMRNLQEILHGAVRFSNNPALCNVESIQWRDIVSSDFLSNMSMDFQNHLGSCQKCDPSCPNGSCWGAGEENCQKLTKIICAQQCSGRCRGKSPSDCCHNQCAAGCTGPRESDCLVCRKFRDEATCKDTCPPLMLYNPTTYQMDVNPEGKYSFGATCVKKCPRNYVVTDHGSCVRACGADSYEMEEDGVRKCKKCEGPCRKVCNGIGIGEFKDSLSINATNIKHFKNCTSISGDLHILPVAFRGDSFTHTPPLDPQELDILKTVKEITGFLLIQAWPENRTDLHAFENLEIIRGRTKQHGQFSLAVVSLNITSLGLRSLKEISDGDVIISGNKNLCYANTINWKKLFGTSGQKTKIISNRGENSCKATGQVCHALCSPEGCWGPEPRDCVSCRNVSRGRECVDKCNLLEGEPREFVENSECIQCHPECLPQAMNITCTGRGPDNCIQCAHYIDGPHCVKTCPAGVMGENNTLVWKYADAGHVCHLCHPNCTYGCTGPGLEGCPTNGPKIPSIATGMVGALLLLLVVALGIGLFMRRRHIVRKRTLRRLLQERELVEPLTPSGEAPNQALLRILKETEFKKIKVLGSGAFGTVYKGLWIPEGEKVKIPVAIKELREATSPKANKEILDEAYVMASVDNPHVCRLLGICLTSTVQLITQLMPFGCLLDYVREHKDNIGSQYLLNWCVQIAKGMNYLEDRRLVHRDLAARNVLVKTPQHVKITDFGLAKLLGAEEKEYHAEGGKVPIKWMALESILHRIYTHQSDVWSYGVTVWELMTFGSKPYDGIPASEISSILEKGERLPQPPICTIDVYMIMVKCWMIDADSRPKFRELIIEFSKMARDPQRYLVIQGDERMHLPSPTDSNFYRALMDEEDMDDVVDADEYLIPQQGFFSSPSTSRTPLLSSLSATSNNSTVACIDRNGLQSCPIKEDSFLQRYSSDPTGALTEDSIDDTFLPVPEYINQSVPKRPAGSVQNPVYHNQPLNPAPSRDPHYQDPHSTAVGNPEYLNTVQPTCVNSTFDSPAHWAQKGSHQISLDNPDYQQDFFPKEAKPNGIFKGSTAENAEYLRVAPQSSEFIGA

IC50, 0.003 to 25 µM:
CCC(C)NC(=O)c1cn2ncnc(C3C(=O)Nc4ccccc43)c2c1C (stereo not drawn)
CCc1c(C(=O)NCCCn2ccnc2)cn2ncnc(Nc3ccc4c(cnn4Cc4ccccc4)c3)c12
COC(=O)c1cn2ncnc(Nc3ccc(Br)c(O)c3)c2c1C
